Laboratory results as given in US20240245680A1, “Methods of Treating Retinal Vasculopathies” (Unity Biotechnology, Inc., priority 2021, published 2024).
Counter-ions that a name gives are not always drawn.

Tests used:
[1] = molecular target: T1, transglutaminase 2 (TGase 2) (Homo sapiens, UniProt P21980); conditions: under a modified assay condition; cited from earlier work
T1 sequence (P21980 1-687): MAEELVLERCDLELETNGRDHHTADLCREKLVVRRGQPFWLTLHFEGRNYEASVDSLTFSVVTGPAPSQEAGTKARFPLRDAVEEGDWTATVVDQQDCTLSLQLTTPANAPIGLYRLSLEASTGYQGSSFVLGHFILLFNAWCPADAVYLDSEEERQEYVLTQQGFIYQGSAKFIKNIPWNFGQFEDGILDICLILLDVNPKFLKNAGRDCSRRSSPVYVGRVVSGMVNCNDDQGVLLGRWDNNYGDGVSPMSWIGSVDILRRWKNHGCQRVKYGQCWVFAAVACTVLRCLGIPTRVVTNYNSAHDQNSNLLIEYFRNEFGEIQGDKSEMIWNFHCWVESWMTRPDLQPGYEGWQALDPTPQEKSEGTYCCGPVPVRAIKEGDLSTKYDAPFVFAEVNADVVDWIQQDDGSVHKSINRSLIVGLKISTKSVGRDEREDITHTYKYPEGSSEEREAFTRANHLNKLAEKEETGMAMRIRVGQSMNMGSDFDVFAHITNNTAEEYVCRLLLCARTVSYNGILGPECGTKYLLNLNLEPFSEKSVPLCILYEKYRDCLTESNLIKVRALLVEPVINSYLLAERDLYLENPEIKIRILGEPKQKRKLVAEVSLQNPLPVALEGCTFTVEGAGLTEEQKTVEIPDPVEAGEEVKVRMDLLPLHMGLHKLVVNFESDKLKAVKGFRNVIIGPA

[2] = test system: irradiated, senescent HRMEC cells; assay: Senolytic assay: irradiated senescent vs non-senescent HRMEC cells (CellTiter-Glo); format: cell-based, human; conditions: 1:3 dilution series, dose-dependent (FIG. 3A, FIG. 5)
Text: (§1) The ability of candidate agents to eliminate senescent retinal vascular endothelial cells or senescent retinal pigmented epithelial cells can be measured directly in the following assay. Human retinal microvascular endothelial cells (HRMEC) can be obtained from Neuromics® with the designation HEC09 or Cell Systems ACBRI 181. Human umbilical vein endothelial cells (HUVEC) can be obtained from Lonza® with the designation CC-2519. The cells can be maintained and propagated at <75% confluency in ENDO-Growth® Media (Neuromics®, Edina M N) at 3% O2, 10% CO2, and ˜95% humidity. Human retinal pigmented epithelial cells (RPE) can be obtained from Lonza® with the designation 194987. […]
(§2) On day 0, the irradiated HRMEC or RPE or HUVEC cells can be incubated with TrypLE trypsin-containing reagent (Thermofisher® Scientific, Waltham, Massachusetts) until the cells round up and begin to detach from the plate. Cells can then be dispersed, counted, and prepared in medium at a concentration of 100,000 cells per mL. […] On day 3, the quiescent healthy non-senescent HRMEC or RPE cells can be trypsinized from the culture flask as described above, and the cells can be dispersed, counted, and prepared in medium at a concentration of 80,000 cells per mL. […]

[3] = molecular target: T2, cKGA (kidney-type glutaminase) (Homo sapiens, UniProt O94925); conditions: cited from earlier work
T2 sequence (O94925 221-533 limits assumed): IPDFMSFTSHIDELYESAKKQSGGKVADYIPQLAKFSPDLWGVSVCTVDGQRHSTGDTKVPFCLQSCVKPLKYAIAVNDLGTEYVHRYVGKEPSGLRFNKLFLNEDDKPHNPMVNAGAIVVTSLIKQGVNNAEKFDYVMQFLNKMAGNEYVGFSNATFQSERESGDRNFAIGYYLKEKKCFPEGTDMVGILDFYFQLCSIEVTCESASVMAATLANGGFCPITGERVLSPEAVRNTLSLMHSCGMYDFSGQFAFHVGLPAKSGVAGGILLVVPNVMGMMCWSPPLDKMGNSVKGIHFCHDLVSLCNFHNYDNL

[4] = test system: irradiated, senescent HUVEC cells; assay: Senolytic assay: irradiated senescent vs non-senescent HUVEC cells (CellTiter-Glo); format: cell-based, human; conditions: 1:3 dilution series, dose-dependent (FIG. 3B, 4, 6A, 6B)
Text: as §1, §2

[5] = molecular target: T3, GPX4 (Mus musculus, UniProt O70325); assay: GPX4 competitive target engagement gel-shift assay, adult murine retinas; format: in vivo; conditions: integrated band density (FIGS. 8A-8C)
T3 construct: from tissue; host or cells: adult murine retina
T3 sequence (O70325 whole entry): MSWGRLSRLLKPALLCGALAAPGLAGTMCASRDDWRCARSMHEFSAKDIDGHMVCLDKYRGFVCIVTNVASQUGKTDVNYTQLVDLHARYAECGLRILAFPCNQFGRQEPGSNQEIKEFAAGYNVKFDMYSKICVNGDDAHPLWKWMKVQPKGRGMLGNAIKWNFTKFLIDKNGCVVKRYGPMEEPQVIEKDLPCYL
Procedure: A gel shift assay was developed for the detection of either in vitro cell line or in vivo tissue target engagement (TE) of a GPX4 inhibitor. See FIG. 7 for a schematic of the assay.
In vitro labeling protocol: Two frozen murine retinas were added directly to 0.5 mL Precellys® tubes with ceramic beads and 200 μL of cold mPER with 1× Roche EDTA-free protease inhibitors and 5 mM TCEP. The retina tissue was homogenized using a single 15 s burst at 4500 RPM at 4° C. The tubes were spun at 5 k×g for 5 min @ 4° C. to remove the foam, then all liquid was transferred to 1.5 mL Eppendorfs®. The samples were spun @ 20 k×g for 10 min at 4° C., and the clarified lysates were transferred to clean tubes. 27.5 μL of each of the vehicle controls were combined into one tube to provide a labeling standard sample.
For the labeling control, 50 μL of sample was added to 1 μL of 5 mM RSL3 and another 50 μL of sample was added to DMSO as a control. The samples were mixed and incubated for 1 hr at room temperature (RT). […]
Blots were blocked with 5% Milk in TBST for 1 hr. […] Anti-rabbit-HRP was used at 1:5000 in 5% milk in TBST for ˜1 hr RT and signal was detected using the Western Pico® ECL reagent. […] The integrated density of bands for +/−streptavidin was quantitated using ImageJ® (National Institutes of Health).

[6] = molecular target: T4, GLS2 (Homo sapiens, UniProt Q9UI32); conditions: cited from earlier work
T4 sequence (Q9UI32 15-602): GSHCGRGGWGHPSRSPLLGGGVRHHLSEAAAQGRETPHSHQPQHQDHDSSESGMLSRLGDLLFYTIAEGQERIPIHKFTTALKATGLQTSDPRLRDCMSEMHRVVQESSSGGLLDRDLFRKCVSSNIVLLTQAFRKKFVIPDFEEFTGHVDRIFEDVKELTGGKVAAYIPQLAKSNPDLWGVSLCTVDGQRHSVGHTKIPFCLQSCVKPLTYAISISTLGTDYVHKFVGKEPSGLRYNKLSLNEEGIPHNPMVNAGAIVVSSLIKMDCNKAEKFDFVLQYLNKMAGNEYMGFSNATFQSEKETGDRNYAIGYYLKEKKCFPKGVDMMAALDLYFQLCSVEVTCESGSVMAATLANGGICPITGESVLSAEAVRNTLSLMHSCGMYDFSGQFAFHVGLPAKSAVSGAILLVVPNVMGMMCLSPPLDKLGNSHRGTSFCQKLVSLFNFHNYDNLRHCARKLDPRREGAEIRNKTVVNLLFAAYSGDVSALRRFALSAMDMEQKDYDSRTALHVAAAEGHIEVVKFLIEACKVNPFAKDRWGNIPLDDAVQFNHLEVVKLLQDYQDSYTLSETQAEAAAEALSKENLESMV

Molecule: GK921
- IC50 [1]: 8.93 µM

Molecule: Cc1onc(C(=O)N2CCN(C(c3ccc(Cl)cc3)c3ccc(Cl)cc3)CC2)c1[N+](=O)[O-] [ML210]
- selective killing of senescent HRMEC cells as compared to non-senescent HRMECs [2]: selectively senolytic

Molecule: [N-]=[N+]=CC(=O)CC[C@H](N)C(=O)O [6-Diazo-5-oxo-L-norleucine]
- IC50 [3]: ~1000 µM

Molecule: O=C(/C(C[N+](=O)[O-])=N/O)N1CCN(C(c2ccc(Cl)cc2)c2ccc(Cl)cc2)CC1 [JKE-1674, (E)-1-(4-(bis(4-chlorophenyl)methyl)piperazin-1-yl)-2-(hydroxyimino)-3-nitropropan-1-one]
- selective killing of senescent HUVEC cells as compared to non-senescent HUVECs [4]: selectively senolytic

Molecule: COC(=O)c1ccc([C@H]2c3[nH]c4ccccc4c3C[C@H](C(=O)OC)N2C(=O)CCl)cc1 [RSL3, (1S,3R)-methyl 2-(2-chloroacetyl)-1-(4-(methoxycarbonyl)phenyl)-2,3,4,9-tetrahydro-1H-pyrido[3,4-b]indole-3-carboxylate]
- selective killing of senescent HUVEC cells as compared to non-senescent HUVECs [4]: selectively senolytic
- selective killing of senescent HRMEC cells as compared to non-senescent HRMECs [2]: selectively senolytic
- GPX4 target engagement (TE) [5]: dose-dependent GPX4 TE

Molecule: CNC(=O)c1cn(C[C@H](F)CCc2ccc(NC(=O)Cc3cc(OC4CC(F)(F)C4)cc(C)n3)nn2)nn1 [IPN-60090 dihydrochloride]
- activity against GLS-2 [6]: no activity observed
